The values that follow come from PMC9230651, “Discovery of Novel Quinazoline Derivatives as Potent Antitumor Agents” (Molecules, 2022).

The test system of series [1] is MGC-803. Nature of the series: MTT assay, antiproliferative activity against MGC-803. The format is cell-based, human. Particulars: Homo sapiens, MGC-803, 72 h. As for the experimental part: (§1) Human gastric carcinoma cell line MGC-803, human breast adenocarcinoma cell line MCF-7, human lung carcinoma cell lines (PC-9, A549, and H1975), and human immortalized gastric mucosa epithelial cell line GES-1 were purchased from the Cell Bank of Shanghai Institute of Biochemistry and Cell Biology (Shanghai, China), and all of them were cultured in RPMI-1640 and DMEM complete medium (Solarbio, Beijing, China) at 37 °C in a 5% CO2 humidified atmosphere.
(§2) Briefly, cells were incubated with different concentrations of the test compound for different hours in each experiment for 72 h, followed by adding 20 μL MTT solution to each well, which was then incubated for another 4 h. An enzyme-linked immunosorbent assay reader (BioTek, South Plainfield, VT, USA) was used to measure absorbance values at 490 nm, and SPSS20 software was used to calculate the cell viability and IC50 values.
On the technique in general: Tetrazolium assays rely on reduction of a dye to a coloured formazan, in cell work by metabolically active cells.

Series [2] has as its system MCF-7. Kind of series: MTT assay, antiproliferative activity against MCF-7. The format is cell-based, human. Particulars: Homo sapiens, MCF7, 72 h. As for the experimental part: as §1, §2
For series [3], the system named is PC-9. Nature of the series: MTT assay, antiproliferative activity against PC-9. It counts as cell-based, human. The following applies: Homo sapiens, PC-9, 72 h. As for the experimental part: as §1, §2
Series [4] deals with A549. Nature of the series: MTT assay, antiproliferative activity against A549. Particulars: Homo sapiens, A549, 72 h. The format is cell-based, human. As for the experimental part: as §1, §2
For series [5], the system named is H1975. Nature of the series: MTT assay, antiproliferative activity against H1975. It counts as cell-based, human. The following applies: Homo sapiens, NCI-H1975, 72 h. As for the experimental part:
as §1, §2

Series [6] deals with GES-1. Nature of the series: MTT assay, toxicity toward normal gastric epithelial cell line GES-1. The format is cell-based, human. As for the experimental part:
as §1, §2

The test system of series [7] is MGC-803 cells. Kind of series: Wound healing migration assay. It counts as cell-based, human. The following applies: 1 µM; 12 h, 24 h, 48 h. The procedure:
For the wound healing assay, MGC-803 cells were seeded into 6-well plates, reaching the density of 90%, followed by being scraped off using a sterile yellow pipette tip and photographed. Subsequently, cells were treated with compound 18 at 1 µM for 12 h, 24 h, and 48 h, respectively, and then photographed again each time.

Series [8] concerns MGC-803 cells. Nature of the series: Transwell migration assay. The format is cell-based, human. The following applies: 0.37, 0.75, 1.5 µM; 48 h. The procedure: For the transwell assay, 600 µL of fresh medium was added to 20% FBS to the substrate of the 24-well plates. Then, 2 × 10^4 MGC-803 cells were seeded into each well, followed by incubation with 0.37 µM, 0.75 µM, and 1.5 µM compound 18 in the upper chambers for 48 h, which was then stained by DAPI solution and photographed.

For series [9], the system named is MGC-803 cells. Nature of the series: Apoptosis, Annexin V-FITC/PI flow cytometry. It counts as cell-based, human. Particulars: 1.5 μM, 48 h. The procedure: Cells were plated in 6-well plates and incubated with 0.37 µM, 0.75 µM, and 1.5 µM compound 18 for 48 h, followed by being harvested and stained by PI and Annexin V according to manufacturer’s protocol. Finally, flow cytometry (BD Bioscience, Franklin Lake, NJ, USA) was applied to detect apoptotic cells.
(In general: Flow cytometry measures light scatter and fluorescence of single cells or particles in a stream.)

Series [10] concerns MGC-803 cells. Nature of the series: Western blot of apoptosis-related proteins. It counts as cell-based, human. The following applies: 0.37, 0.75, 1.5 µM; 48 h. As for the experimental part:
Cells were incubated with 0.37 µM, 0.75 µM, and 1.5 µM compound 18 for 48 h and then collected with trypsin and total proteins and extracted in a lysis buffer. A BCA protein assay kit (Solarbio, Beijing, China) was used to confirm the concentration of the total proteins. These samples were detected by the standard protocol of western blot as described before.
(A western blot detects proteins with antibodies after separation by electrophoresis.)

The subject of series [11] is MGC-803 cells. Kind of series: Cell cycle distribution, PI flow cytometry. It counts as cell-based, human. The following applies: 0.37, 0.75, 1.5 µM; 48 h. As for the experimental part: MGC-803 cells were seeded into 6-well plates at a concentration of 4 × 10^5 cells per well, followed by being incubated with 0.37 µM, 0.75 µM, and 1.5 µM compound 18 for 48 h, which were subsequently harvested and stained in 500 µL Propidium Iodide solution (PI 1 mg/mL, RNase A 10 mg/mL, Solarbio, Beijing, China) at room temperature without light for 30 min. Finally, flow cytometry (BD Bioscience, Franklin Lake, NJ, USA) was used to detect and analyze staining cells.

Series [12] deals with healthy male and female mice. Kind of series: Acute toxicity assay. It counts as in vivo. Particulars: 1000 mg/kg intragastric, single dose. As for the experimental part:
The solution of compound 18 was prepared in 80% PEG400 solution. Eight ICR mice (four male/four female, 24–28 g, aged five to six weeks) were obtained from the Beijing Vital River Laboratory Animal Technology Co., Ltd. (Beijing, China). All animal treatments were performed under the guidelines of the National Institutes of Health Guide for the Care and Use of Laboratory Animals using an approved animal protocol by the Zhengzhou University Committee on Animal Care. Male and female mice ([…]) were divided randomly into four groups: a male control group (n = 2), a female control group (n = 2), a male group (n = 2), and a female group (n = 2). All mice were deprived of feed for 12 h. 1 g/kg compound 18 was administered intragastrically in the experiment group of mice, while the mice in the control group received the same volume of vehicle solution on the first day, followed by monitoring abnormal behaviors, body weight, and the death of these mice every day during the following two weeks.

The subject of series [13] is xenograft model carrying MGC-803 cells. Nature of the series: In vivo anti-tumor activity, gastric cancer xenograft model. The arrangement: species or system mice. The following applies: 25 mg/kg intragastric per day for 21 days. As for the experimental part:
Male mice (23–25 g, aged 5–6 weeks) were obtained from Beijing Vital River Laboratory Animal Technology Co., Ltd. (Beijing, China). All animal treatments were performed under the guidelines of the National Institutes of Health Guide for the Care and Use of Laboratory Animals using an approved animal protocol by the Zhengzhou University Committee on Animal Care (2020CHEM-ZZU-086). 1.0 × 10^7 MGC-803 cells were implanted in the right flank of mice subcutaneously. After 16 days, the tumor volume reached 100 mm^3, followed by being randomly divided into three groups (n = 7): solvent group, 5-Fu (10 mg/kg) group, and compound 18 (25 mg/kg) group. An intravenous injection of 5-Fu (10 mg/kg) was administered into the corresponding mice group every three days, while the mice in compound 18 group received intragastric administration of 25 mg/kg compound 18 per day for 21 days. Tumor diameter and body weight were measured every two days, followed by the euthanization of the mice after 34 days, after which tumor weights were.

A word on the IC50: it is the midpoint of a concentration-inhibition curve. A high value points to weaker potency in that assay. Molecule `O=C(/C=C/c1ccc(Br)cc1)c1ccc(Nc2nc(-c3ccccc3)nc3ccccc23)cc1` [compound 18, (E)-3-(4-Bromophenyl)-1-(4-((2-phenylquinazolin-4-yl)amino)phenyl)prop-2-en-1-one] showed an IC50 in series [1] of 0.85 ± 0.14 µM. This molecule also had an IC50 in series [2] of 1.61 ± 0.2 µM. In series [3], this molecule registered an IC50 of 1.26 ± 0.18 µM. The same molecule yielded an IC50 in series [4] of 1.54 ± 0.38 µM. In series [5], this molecule yielded an IC50 of 2.12 ± 0.52 µM. In series [6] (Homo sapiens, GES1, MTT, 72 h), this molecule yielded an IC50 of 26.8 ± 1.85 µM. In [6] (IC50 GES-1 / IC50 MGC-803), the “selectivity MGC-803 against GES-1” value was about 32 fold. Also, in series [7], the “effect on migration of MGC-803 cells, wound healing assay” value is “effectively inhibit the migration of MGC-803 cells dose-dependently”. Moreover, the “effect on migration of MGC-803 cells, transwell assay” value in series [8] is “effectively inhibit the migration of MGC-803 cells dose-dependently”. Further, the “apoptotic percentage (late and early apoptosis)” value in [9] amounted to 70.9%. Besides, in series [10], the “expression of Bax” value is “up-regulating”, the “expression of Bcl-2” value is “remarkably decreased”, the “expression of Mcl-1” value is given as “remarkably decreased” and the “expression of cleaved PARP” value is “dose-dependently induced the up-regulation”. Further, the “effect on cell cycle” value in [11] was “significantly induced cell cycle arrest at G2/M”. In addition, the “pathological damage of brain, heart, liver, spleen, lung, kidney (HE staining)” value in [12] was “no marked pathological damage”. In series [13], the average tumor volume entry is “decreased the average tumor volume”; the body weight result is “did not cause significant changes in body weight”; the tumor weight entry was “decreased the average tumor volume and tumor weight”.
